One substance from patent publication US20240115663A1, “COMPOSITIONS COMPRISING AT LEAST AN INSULIN AND AN AMYLIN RECEPTOR AGONIST FOR TREATING DIABETES, IN A PATIENT/PERSON HAVING A BMI OF MORE THAN 28 KG/M² AND/OR AN HBA1C OF MORE THAN 7.6%” (ADOCIA, priority 2022, published 2024) can be followed below.

A short description of the test: Phase 2 clinical trial of M1Pram vs Humalog in subjects with type 1 diabetes: body weight change after 16 weeks. It counts as in vivo, human. As for the experimental part: A phase 2 clinical trial was conducted to confirm the efficacy and safety of M1Pram in subjects with type 1 diabetes (NCT04816890).
The primary objective of the trial was to compare the efficacy of prandial use of M1Pram to Humalog® (insulin lispro) on body weight change after 16 weeks of optimised titration, in combination with a basal insulin.
In addition, exploratory objectives included the comparison of the efficacy of prandial use of M1Pram with Humalog® in subgroups of subjects with a body mass index (BMI) and HbA1c above and below the median at screening.
A post-hoc analysis also included the comparison of the efficacy of prandial use of M1Pram with Humalog® in subgroups of subjects with a body mass index (BMI)>=30 kg/m^2.
The primary endpoint was the body weight change from baseline to week 16 of treatment.
In addition, exploratory endpoints included analysis of the subgroups of the primary endpoint according to BMI and HbA1c below and above the median.
A post-hoc analysis was also performed to analyze the subgroups of the primary endpoint according to BMI>=30 kg/m^2.
This was a multicentric, open-label, randomized, two-arm parallel, active-comparator controlled phase 2 clinical trial evaluating the efficacy and safety of M1Pram in subjects with type 1 diabetes.
Key inclusion criteria included subjects • with T1D • aged between 18 and 64 years • with a Body Mass Index (BMI) between 25.0 and 35.0 kg/m^2, both inclusive, • with HbA1c between 7.0% and 9.5%, both inclusive • with a Diabetes duration of at least 12 months • Using a multiple dosing insulin therapy (MDI) with a basal insulin and a rapid-acting insulin • having at least two meals per day.
80 patients were randomized 1:1 to M1Pram or Humalog®.
The trial consisted in 4 periods: • an optional a run-in period of 2 to 4 weeks for patients not already using the Continuous Glucose Monitoring (CGM) system used in the trial or either insulin degludec or insulin glargine as basal insulins • a 3-week baseline data recording period • after randomization, a treatment period of about 16 weeks (W1 to 16) • and a safety follow-up period of 1 to 2 weeks after the last product administration.
37 subjects completed the trial in the Humalog® arm and 34 in the M1 Pram arm. The subgroups were selected depending on the patients' metrics at screening.

For the substance insulin lispro [Humalog ®], the “Mean BW change in kg (SD)” value runs as follows: (All completers, baseline to week 16 of treatment, T1D subjects, prandial use with basal insulin) −0.45 (3.12) kg; (Subgroup BMI <= 28 kg/m^2 at screening, baseline to week 16) −0.69 (3.19) kg; (Subgroup BMI > 28 kg/m^2 at screening, baseline to week 16) −0.17 (3.09) kg; (Subgroup BMI >= 30 kg/m^2 (post-hoc), baseline to week 16) −0.57 (3.60) kg; (Subgroup HbA1c <= 7.6% at screening, baseline to week 16) −0.87 (2.20) kg; (Subgroup HbA1c > 7.6% at screening, baseline to week 16) 0.04 (3.95) kg.
